Literature values as cited in patent publication US6352974B1, “Oral calcitonin pharmaceutical compositions and methods of making the same” (Eurand International S.p.A., priority 1996, dated 2002).

Settings: typical activity

Substance: Salmon calcitonin
- activity: up to 6500 IU/mg
